In patent US20120020915A1, “Compounds and Methods for Treating Cancer and Diseases of the Central Nervous System” (QUEENS UNIVERSITY AT KINGSTON, priority 2007, published 2012):
Where a name gives a salt, the structure may show the parent alone. Read-outs that look alike come from different tables or passages of the source. Blank lines part the entries; values can stand above or below the compound they belong to.

Columns and labels:
HO-2 (rat brain) = biological target: T1, HO-2 (rat brain) (Rattus norvegicus, UniProt P23711); assay: HO enzymatic activity, rat brain microsomal fraction (CO formation from methemalbumin); assay type: biochemical
T1 construct: brain microsomes were used as a source of HO-2; from tissue; host or cells: brain microsomal fraction of adult male Sprague-Dawley rats
T1 sequence (P23711 1-315): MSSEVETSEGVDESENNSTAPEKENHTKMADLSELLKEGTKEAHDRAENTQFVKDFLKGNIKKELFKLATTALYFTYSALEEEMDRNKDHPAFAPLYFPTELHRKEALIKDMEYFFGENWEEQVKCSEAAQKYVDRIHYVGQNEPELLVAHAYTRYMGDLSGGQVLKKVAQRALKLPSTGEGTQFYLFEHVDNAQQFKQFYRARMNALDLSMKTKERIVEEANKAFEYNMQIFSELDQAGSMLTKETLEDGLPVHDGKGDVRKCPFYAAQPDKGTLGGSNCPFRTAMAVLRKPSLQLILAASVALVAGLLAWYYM
Protocol: (§1) Incubations for HO activity analysis were done under conditions for which the rate of CO formation (pmol CO×min^−1×mg protein^−1) was linear with respect to time and microsomal protein concentration. Briefly, reaction mixtures (150 μL) consisting of 100 mM phosphate buffer (pH 7.4), 50 μM methemalbumin, and 1 mg/mL protein were pre-incubated with the inhibitors at final concentrations ranging from 0.1-100 μM for 10 minutes at 37° C. Reactions were initiated by adding NADPH at a final concentration of 1 mM and incubations were performed for an additional 15 minutes at 37° C.
(§2) Incubations for HO activity analysis were done under conditions for which the rate of CO formation (pmol CO/mg protein/minute) was linear with respect to time and microsomal protein concentration. Briefly, reaction mixtures (150 μL) consisting of 100 mM phosphate buffer (pH 7.4), 50 μM methemalbumin and 1 mg/mL protein were pre-incubated with the vehicle (ethanol or water in which the inhibitors were dissolved), or inhibitors at final concentrations ranging from 0.1-1000 μM for 10 minutes at 37° C. Reactions were initiated by adding β-NADPH at a final concentration of 1 mM and incubations were carried out for an additional 15 minutes at 37° C. Reactions were stopped by instantly freezing the reaction mixture on pulverized dry ice and CO formation was measured by gas chromatography using a TA 3000R Process Gas Analyzer (Trace Analytical/Ametek, Newark, Del., USA).
(§3) The values on the abscissa represent the decimal logarithm of the inhibitor's concentration (in μM), whereas the values of the activity on the ordinate are expressed as a percentage of the control experiments without inhibitor.
(§4) The IC50 values for the replicate experiments were employed to generate the reported standard deviation value.

HO-1 (rat spleen) = biological target: T2, HO-1 (rat spleen) (Rattus norvegicus, UniProt P06762); assay: HO enzymatic activity, rat spleen microsomal fraction (CO formation from methemalbumin); assay type: biochemical
T2 construct: Spleen microsomes were used as a source of HO-1; from tissue; host or cells: spleen microsomal fraction of adult male Sprague-Dawley rats
T2 sequence (P06762 1-289): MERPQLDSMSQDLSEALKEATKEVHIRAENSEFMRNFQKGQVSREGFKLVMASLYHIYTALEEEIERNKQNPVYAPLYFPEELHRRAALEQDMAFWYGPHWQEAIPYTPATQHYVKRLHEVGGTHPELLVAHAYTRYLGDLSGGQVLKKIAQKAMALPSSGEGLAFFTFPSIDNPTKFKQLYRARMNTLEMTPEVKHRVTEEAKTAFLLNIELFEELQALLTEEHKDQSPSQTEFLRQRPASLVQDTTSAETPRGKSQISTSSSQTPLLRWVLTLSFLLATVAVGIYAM
Protocol: as §1, §2, §3, §4

[1] = IC50 HO-2 (rat brain)/μM), CO formation from methemalbumin, mean ± SD of replicate experiments
[2] = IC50 HO-1 (rat spleen/μM), CO formation from methemalbumin, mean ± SD of replicate experiments
[3] = CO formation from methemalbumin, mean ± SD of replicate experiments, read-out: IC50 HO-2 (rat brain)/μM)
[4] = CO formation from methemalbumin, mean ± SD of replicate experiments, read-out: IC50 HO-1 (rat spleen/μM)
[5] = average ± SD of replicate experiments, read-out: IC50 HO-2 (rat brain)/μM)
[6] = average ± SD of replicate experiments, read-out: IC50 HO-1 (rat spleen/μM)
[7] = IC50 HO-2 (rat brain)/μM), average ± SD of replicate experiments
[8] = IC50 HO-1 (rat spleen/μM), average ± SD of replicate experiments

Compound: Clc1ccc(CCC2(Cn3ccnc3)OCCCO2)cc1 [QC-70, 2-[2-(4-chlorophenyl)ethyl]-2-[(1H-imidazol-1-yl)methyl]-1,3-dioxane hydrochloride]
IC50 (HO-2 (rat brain); [1]): > 100 µM
IC50 (HO-1 (rat spleen); [2]): 20 ± 4 µM

IC50 (HO-2 (rat brain); [3]): 125 ± 22 µM
IC50 (HO-1 (rat spleen); [4]): 42 ± 5 µM
Compound: O=C(CBr)CCc1ccc(Br)cc1 [QC-59, 1-bromo-4-(4-bromophenyl)butan-2-one]

IC50 (HO-2 (rat brain); [3]): 29 ± 6 µM
IC50 (HO-1 (rat spleen); [4]): 28 ± 15 µM
Compound: COc1ccc(OC[C@H]2CO[C@](CCc3ccc(Cl)cc3)(Cn3ccnc3)O2)cc1 [QC-8, (2S,4S)-2-[2-(4-chlorophenyl)ethyl]-2-[(1H-imidazol-1-yl)methyl]-4-[(4-methoxyphenyloxy)methyl]-1,3-dioxolane hydrochloride]

Compound: Fc1ccc(COC(CCc2ccc(Cl)cc2)Cn2ccnc2)cc1 (stereo not drawn) [QC-37, 4-(4-Chlorophenyl)-2-(4-fluorobenzyloxy)-1-(1H-imidazol-1-yl)butane hydrochloride]
IC50 (HO-2 (rat brain); [3]): 1 ± 0.01 µM
IC50 (HO-1 (rat spleen); [4]): 0.9 ± 0.3 µM

IC50 (HO-2 (rat brain); [5]): > 100 µM
IC50 (HO-1 (rat spleen); [6]): > 100 µM
Compound: CS(=O)(=O)c1ncn(CC(=O)CCc2ccccc2)n1 [QC-155, 1-(3-Methanesulfonyl-[1,2,4]triazol-1-yl)-4-phenyl-butan-2-one]

Compound: c1ccc(C2(Cn3ccnc3)OCCO2)cc1 [QC-246, 1-(2-Phenyl-[1,3]dioxolan-2-ylmethyl)-1H-imidazole hydrochloride]
IC50 (HO-2 (rat brain); [7]): > 100 µM
IC50 (HO-1 (rat spleen); [8]): 32 ± 3 µM

IC50 (HO-2 (rat brain); [3]): > 100 µM
IC50 (HO-1 (rat spleen); [4]): > 100 µM
Compound: O=C(c1ccc(-n2ccnc2)cc1)C1CC1 [QC-98, Cyclopropyl-(4-imidazol-1-yl-phenyl)methanone hydrochloride]

Compound: COC(=O)c1ncn(CC(=O)CCc2ccccc2)c1C(=O)OC [QC-123, 1-(2-Oxo-4-phenyl-butyl)-1H-imidazole-4,5-dicarboxylic acid dimethyl ester hydrochloride]
IC50 (HO-2 (rat brain); [1]): > 100 µM
IC50 (HO-1 (rat spleen); [2]): > 100 µM

IC50 (HO-2 (rat brain); [3]): > 43 µM
IC50 (HO-1 (rat spleen); [4]): 2 ± 1 µM
Compound: (2R,4R)-2-[2-(4-phenyl)ethyl]-2-[(1H-imidazol-1-yl)methyl]-4-methyl-1,3-dioxolane hydrochloride [QC-35]

IC50 (HO-2 (rat brain); [5]): > 100 µM
IC50 (HO-1 (rat spleen); [6]): > 100 µM
Compound: O=C(CCc1ccccc1)Cn1cnc([N+](=O)[O-])n1 [QC-152, 1-(3-Nitro-[1,2,4]triazol-1-yl)-4-phenyl-butan-2-one]

Compound: COc1ccc(CCC(=O)Cn2ccnc2)cc1 [QC-72, 1-(1H-imidazol-1-yl)-4-(4-methoxyphenyl)-2-butanone hydrochloride]
IC50 (HO-2 (rat brain); [1]): 29 ± 19 µM
IC50 (HO-1 (rat spleen); [2]): 2.2 ± 0.9 µM

Compound: CN(C)CCC(=O)c1ccc(Cl)cc1 [QC-84, 1-(4-chlorophenyl)-3-dimethylamino-propan-1-one]
IC50 (HO-2 (rat brain); [1]): > 100 µM
IC50 (HO-1 (rat spleen); [2]): > 100 µM

IC50 (HO-2 (rat brain); [5]): > 100 µM
IC50 (HO-1 (rat spleen); [6]): > 100 µM
Compound: c1ccc2[nH]c(NCCCCCN3CCCCC3)nc2c1 [QC-144, (1H-Benzoimidazol-2-yl)-(5-piperidin-1-yl-pentyl)-amine]

Compound: O=C(Cn1cncn1)c1ccc(Cl)cc1 [QC-158, 1-(4-Chlorophenyl)-2-[1,2,4]triazol-1-yl-ethanone hydrochloride]
IC50 (HO-2 (rat brain); [7]): 122 ± 0.1 µM
IC50 (HO-1 (rat spleen); [8]): 2.2 ± 0.5 µM

IC50 (HO-2 (rat brain); [3]): > 100 µM
IC50 (HO-1 (rat spleen); [4]): > 100 µM
Compound: c1cn(CCCCCCn2ccnc2)cn1 [QC-89, 1,6-bis-(1H-imidazol-1-yl)hexane dihydrochloride]

Compound: Cc1ccc(C(=O)Cn2ccnc2)cc1 [QC-165, 2-Imidazol-1-yl-1-p-tolyl-ethanone hydrochloride]
IC50 (HO-2 (rat brain); [7]): 69 ± 16 µM
IC50 (HO-1 (rat spleen); [8]): 17 ± 4 µM

IC50 (HO-2 (rat brain); [5]): > 200 µM
IC50 (HO-1 (rat spleen); [6]): > 200 µM
Compound: c1ccc2[nH]c(NC3CCC(c4cnc[nH]4)CC3)nc2c1 (stereo not drawn) [QC-149, (1H-Benzoimidazol-2-yl)-[4-(3H-imidazol-4-yl)-cyclohexyl]-amine dihydrochloride]

IC50 (HO-2 (rat brain); [5]): 251 µM
IC50 (HO-1 (rat spleen); [6]): 382 µM
Compound: O=C(CCc1ccc(O)cc1)Cn1ccnc1 [QC-206, 4-(4-Hydroxyphenyl)-1-(1H-imidazol-1-yl)butan-2-one hydrochloride]

Compound: Cc1ccc(S(=O)(=O)OC[C@@H]2CO[C@](CCc3ccc(Cl)cc3)(Cn3ccnc3)O2)cc1 [QC-4, (2S,4S)-2-[2-(4-chlorophenyl)ethyl]-2-[(1H-imidazol-1-yl)methyl]-4-[(p-toluenesulfonyloxy)methyl]-1,3-dioxolane dihydrochloride]
IC50 (HO-2 (rat brain); [1]): 48 ± 6 µM
IC50 (HO-1 (rat spleen); [2]): 19 ± 9 µM

Compound: Cc1ccc(S(=O)(=O)OC[C@@H]2CO[C@](CCc3ccc(Cl)cc3)(Cn3ccnc3)O2)cc1 [QC-6, (2S,4S)-2-[2-(4-chlorophenyl)ethyl]-2-[(1H-imidazol-1-yl)methyl]-4-[(p-toluenesulfonyloxy)methyl]-1,3-dioxolane]
IC50 (HO-2 (rat brain); [1]): 23 ± 6 µM
IC50 (HO-1 (rat spleen); [2]): 21 ± 2 µM

Compound: O=C(CCc1ccccc1)Cn1ncnn1 [QC-117, 4-Phenyl-1-tetrazol-2-yl-butan-2-one hydrochloride]
IC50 (HO-2 (rat brain); [3]): 37 ± 25 µM
IC50 (HO-1 (rat spleen); [2]): 9.6 ± 0.2 µM

Compound: Cn1c(NCCc2c[nH]cn2)nc2ccccc21 [QC-147, [2-(1H-Imidazol-4-yl)-ethyl]-(1-methyl-1H-benzoimidazol-2-yl)-amine dihydrochloride]
IC50 (HO-2 (rat brain); [7]): > 100 µM
IC50 (HO-1 (rat spleen); [8]): > 100 µM

IC50 (HO-2 (rat brain); [3]): > 100 µM
IC50 (HO-1 (rat spleen); [4]): > 100 µM
Compound: COC(=O)c1ncnn1CC(=O)CCc1ccccc1 [QC-136, 2-(2-Oxo-4-phenyl-butyl)-2H-[1,2,4]triazole-3-carboxylic acid methyl ester]

IC50 (HO-2 (rat brain); [3]): 145 ± 54 µM
IC50 (HO-1 (rat spleen); [4]): 9 ± 2 µM
Compound: O=C(CCc1ccccc1)Cn1cnc(-c2ccccc2)c1 [QC-124, 4-Phenyl-1-(4-phenyl-imidazol-1-yl)-butan-2-one hydrochloride]

Compound: Cc1ccc(S(=O)(=O)OC[C@H]2CO[C@@](CCc3ccc(Cl)cc3)(Cn3ccnc3)O2)cc1 [QC-21, (2R,4R)-2-[2-(4-chlorophenyl)ethyl]-2-[(1H-imidazol-1-yl)methyl]-4-[(p-toluenesulfonyloxy)methyl]-1,3-dioxolane]
IC50 (HO-2 (rat brain); [1]): 23 ± 10 µM
IC50 (HO-1 (rat spleen); [2]): 0.8 ± 0.3 µM

IC50 (HO-2 (rat brain); [3]): > 100 µM
IC50 (HO-1 (rat spleen); [4]): > 100 µM
Compound: COC(=O)c1cn(CC(=O)CCc2ccccc2)cn1 [QC-133, 1-(2-Oxo-4-phenyl-butyl)-1H-imidazole-4-carboxylic acid methyl ester]

IC50 (HO-2 (rat brain); [3]): > 100 µM
IC50 (HO-1 (rat spleen); [4]): > 100 µM
Compound: O=C(n1ccnc1)C(F)(F)F [QC-77, N-trifluoroacetylimidazole]

Compound: O=C(O)Cn1ccnc1 [QC-66, Imidazol-1-yl-acetic acid]
IC50 (HO-2 (rat brain); [3]): > 100 µM
IC50 (HO-1 (rat spleen); [4]): > 100 µM

IC50 (HO-2 (rat brain); [3]): > 100 µM
IC50 (HO-1 (rat spleen); [4]): > 100 µM
Compound: CCCC(=O)n1ccnc1 [QC-100, N-butyrylimidazole]

Compound: c1c[nH]cn1 [QC-43, Imidazole, reference compound]
IC50 (HO-2 (rat brain); [1]): > 100 µM
IC50 (HO-1 (rat spleen); [2]): > 100 µM

Compound: O=C(CCc1ccc(Br)cc1)Cn1cnc2ccccc21 [QC-62, 4-(4-bromophenyl)-1-(1H-benzimidazol-1-yl)butan-2-one hydrochloride]
IC50 (HO-2 (rat brain); [1]): > 100 µM
IC50 (HO-1 (rat spleen); [2]): > 100 µM

IC50 (HO-2 (rat brain); [3]): > 100 µM
IC50 (HO-1 (rat spleen); [4]): > 100 µM
Compound: Cc1ncc[nH]1 [QC-45, 2-methylimidazole, reference compound]

IC50 (HO-2 (rat brain); [3]): > 100 µM
IC50 (HO-1 (rat spleen); [4]): > 100 µM
Compound: O=C(CCc1ccccc1)Cn1cnc2ccccc21 [QC-128, 1-Benzoimidazol-1-yl-4-phenyl-butan-2-one]

Compound: CCN1CCN(c2nc3ccccc3[nH]2)CC1 [QC-148, 2-(4-Ethyl-piperazin-1-yl)-1H-benzoimidazole dihydrochloride hemihydrate]
IC50 (HO-2 (rat brain); [5]): > 100 µM
IC50 (HO-1 (rat spleen); [6]): > 100 µM

Compound: O=C(CCc1ccccc1)Cn1ccnc1[N+](=O)[O-] [QC-160, 1-(2-Nitro-imidazol-1-yl)-4-phenyl-butan-2-one hydrochloride]
IC50 (HO-2 (rat brain); [7]): > 100 µM
IC50 (HO-1 (rat spleen); [8]): > 100 µM

IC50 (HO-2 (rat brain); [3]): > 100 µM
IC50 (HO-1 (rat spleen); [4]): > 100 µM
Compound: Nc1cc(Cl)ccc1-c1nnn[nH]1 [QC-29, 5-(2-amino-4-chlorophenyl)-1H-tetrazole]
